Tests used:
[1] = tested on: Mus musculus; settings: oral
[2] = tested on: Rattus norvegicus; settings: oral
[3] = short-term, duration: 3 weeks, M, BALB/c, Immunotoxicological: ~36% decrease in spleen index during recovery / ~15% inhibition in Con Ainduced T-cell proliferation during treatment…
[4] = short-term, duration: 21 days, F, B6C3F1, Immunotoxicological: Decreased host resistance to influenza virus
[5] = subchronic, duration: 3 months, M/F, C57BL/6, Neurological: Impaired spatial learning and memory
[6] = subchronic, duration: 5 weeks, M, Body Weight: 17% decrease in body weight + Reproductive: Decreases in sperm concentration, serum testosterone levels / vacuolation in …
[7] = developmental, duration: 7 days, Sprague-Dawley, Body Weight: 30% reduction in body weight of dams + Developmental: 13% reduction in body weight of male pups
[8] = developmental, duration: 20 days, F, Sprague-Dawley, Developmental: 5-fold increased neonatal mortality on PNDs 1-3
[9] = developmental, duration: 21 days, F, Sprague-Dawley, Developmental: ~5-fold increased postnatal mortality and severe lung histopathology in pups
[10] = short-term, duration: 28 days, M, Sprague-Dawley, Body Weight: 12% decrease in terminal body weight
[11] = short-term, duration: 28 days, M, Sprague-Dawley, Neurological: Degeneration of gonadotropic cells of the pituitary gland at ?1.0 mg/kg/day / dense chromatin, condensed ribosomes, loss of …
[12] = short-term, duration: 28 days, M, Wistar, Neurological: Tonic convulsions in response to stimuli

Structure (SMILES): O=S(=O)(O)C(F)(F)C(F)(F)C(F)(F)C(F)(F)C(F)(F)C(F)(F)C(F)(F)C(F)(F)F [Perfluorooctanesulfonic acid]
- LOAEL ([1]; short-term, duration: 3 weeks, M, BALB/c, Body Weight: ~15% reduction in body weight during the recovery period): 10 mg/kg-day
- LOAEL [1, 3]: 5 mg/kg-day
- NOAEL [1, 3]: 2.5 mg/kg-day
- LOAEL ([1]; short-term, duration: 7 days, F, BALB/c, Body Weight: 41% decreased body weight gain + Immunotoxicological: Inhibition of T lymphocyte proliferation in response to sRBC / decreased…): 20 mg/kg-day
- NOAEL ([1]; short-term, duration: 7 days, F, BALB/c, Hepatic: 59% increase in relative liver weight): 20 mg/kg-day
- LOAEL ([1]; short-term, duration: 7 days, M, Immunotoxicological: Impaired response to T-cell mitogens / suppressed response to sRBC): 5 mg/kg-day
- NOAEL ([1]; short-term, duration: 10 days, M, C57BL/6, Hepatic: 41% increase in liver weight, hepatocellular hypertrophy, and decreased serum cholesterol levels): 6 mg/kg-day
- LOAEL [1, 4]: 0.025 mg/kg-day
- NOAEL [1, 4]: 0.005 mg/kg-day
- LOAEL ([1]; short-term, duration: 28 days, M, B6C3F1, Body Weight: 21% reduction in body weight): 0.2 mg/kg-day
- NOAEL ([1]; short-term, duration: 28 days, M, B6C3F1, Immunotoxicological: No alterations in thymic lymphocyte phenotypes, response to sRBC, or IgM antibodies to LPS): 0.2 mg/kg-day
- LOAEL [1, 5]: 2.15 mg/kg-day
- NOAEL [1, 5]: 0.43 mg/kg-day
- LOAEL [1, 6]: 10 mg/kg-day
- NOAEL [1, 6]: 0.5 mg/kg-day
- NOAEL ([1]; subchronic, duration: 6 weeks, M, Hepatic: Decreased plasma triglyceride, total cholesterol, non-HDL cholesterol, and HDL cholesterol levels / increased hepatic triglyceride…): 3 mg/kg-day
- NOAEL ([1]; subchronic, duration: 30 days, M, C57BL/6): 10 mg/kg-day
- LOAEL ([1]; subchronic, duration: 30 days, M, C57BL/6, Body Weight: 31% reduction in body weight (correlated with 68% reduction in feed consumption)): 10 mg/kg-day
- LOAEL ([1]; subchronic, duration: 30 days, M, C57BL/6, Hepatic: Increased liver weight (35%) and serum AST(~12%) and GGT levels (~98%) at ?[…] / increases in ALT (~45%) and ALP (~36%) at ?5 mg/…): 2.5 mg/kg-day
- LOAEL ([2]; developmental, duration: 1 days, M/F, Wistar, Developmental: Decreased spatial learning ability in prenatally or postnatally exposed offspring at ?0.8 mg/kg/day and in offspring exposure…): 0.8 mg/kg-day
- LOAEL ([2]; developmental, duration: 5 days, M/F, Sprague-Dawley, Body Weight: Reduced body weight in dams / approximately 98% on GD 8 and 33% on GD 20 + Developmental: Decreased birth weight in females …): 18.8 mg/kg-day
- LOAEL [2, 7]: 20 mg/kg-day
- NOAEL [2, 7]: 5 mg/kg-day
- LOAEL [2, 8]: 2 mg/kg-day
- NOAEL [2, 8]: 0.6 mg/kg-day
- LOAEL [2, 9]: 2 mg/kg-day
- NOAEL [2, 9]: 0.1 mg/kg-day
- NOAEL ([2]; developmental, duration: 84 days, gavage, M/F, Sprague-Dawley, developmental): 7.43 mg/L
- NOAEL ([2]; short-term, duration: 21 days, M, Sprague-Dawley): 10 mg/kg-day
- LOAEL ([2]; short-term, duration: 21 days, M, Sprague-Dawley, Reproductive: Delayed maturation of testicular Leydig cells, decreased seminal vesicle weight, decreased epididymal sperm count, decreased …): 5 mg/kg-day
- LOAEL ([2]; short-term, duration: 25 days, M, Sprague-Dawley, Endocrine: Decreases in serum corticosterone (~58%) and ACTH levels (~11%), decrease in corticotrophin releasing hormone levels in …): 0.5 mg/kg-day
- NOAEL ([2]; short-term, duration: 28 days, M, Sprague-Dawley): 6 mg/kg-day
- LOAEL [2, 10]: 3.21 mg/kg-day
- NOAEL [2, 10]: 1.33 mg/kg-day
- LOAEL ([2]; short-term, duration: 28 days, M, Sprague-Dawley, Death: 100% by day 26): 20 mg/kg-day
- LOAEL ([2]; short-term, duration: 28 days, M, Sprague-Dawley, Endocrine: Decreased serum prolactin (~78%) and estradiol concentrations (~18%)): 3 mg/kg-day
- LOAEL ([2]; short-term, duration: 28 days, M, Sprague-Dawley, Hepatic: Hepatocellular hypertrophy and focal necrosis at ?5 mg/kg/day / fatty degeneration at 20 mg/kg/day + Neurological: Cachexia and …): 5 mg/kg-day
- NOAEL ([2]; short-term, duration: 28 days, M, Sprague-Dawley, Hepatic: Increased relative liver weight at ?0.14 mg/kg/day): 6.34 mg/kg-day
- LOAEL [2, 11]: 1 mg/kg-day
- NOAEL [2, 11]: 0.5 mg/kg-day
- LOAEL [2, 12]: 8.5 mg/kg-day
- NOAEL [2, 12]: 2 mg/kg-day

From EPA's ToxValDB 9.5
